Test [1] deals with high fat diet induced rat lipid metabolism disorder model. The test can be described thus: High fat diet induced rat lipid metabolism disorder model. It is filed as in vivo, SD rat. Conditions: 0.1 g/kg by gavage once a day, high fat feedstuff, after the eighth week. The protocol: Experiment method: 90 SD rats are normally fed for 1 week, the normal group of 10 rats are fed common feedstuff, and others are fed high fat feedstuff (basic feedstuff 88%, lard 10% and cholesterol 2%). 4 weeks later, the rats fed high fat feedstuff are randomly divided into 5 groups, each group of 10. […] The rats in the bezafibrate group are fed bezafibrate 100 mg/kg at the same time as the high fat feedstuff feeding respectively. The tested sample groups are given 100 mg/kg by gavage respectively at the same time as the high fat feedstuff feeding, once a day. The experiment animals can freely drink water and take food, and are fed separately in cages in light and dark for 12 hours, respectively, in a SPF grade animal lab under 25±2° C. After the eighth week of the experiment, the rats are fasted for 16 hours, collected blood from arteria cruralis, sacrificed by dislocating the cervical vertebra, taking out the liver, and preparing serum and liver tissue homogenate in conventional method. The triglyceride (TG), total cholesterol (TC), high density lipoprotein (HDL-C), low density lipoprotein (LDL-C), glutamic-pyruvic transaminase (ALT) and glutamic-oxalacetic transaminase (AST) content in the serum and liver is detected.

The test system of the next test is HepG2 cell. As to the kind of experiment: Lipid droplet content of free fat acid (FFA) induced HepG2 cell (nile red, flow detection). Type of test: cell-based. The note with it: 24 hours, geometric median of fluorescence intensity, means ± s.d., n = 3, model group 222.64 ± 8.34. The protocol:
Experiment method: the HepG2 cells in the logarithmic growth phase are taken having a growth density of 80%, and inoculated into 6-well plate at 1×10^5 per well. After culturing cells for 24 hours, the supernatant is discarded, and the cells are washed with PBS three times. […] Except for the blank control group, all of the other groups are added FFA having a final concentration of 1 mmol/L, and the remaining volume is completed to 2 mL with the DMEM medium containing 10% fetal bovine serum, 24 hours after administration, washed with PBS in 37° C. three times, digested by the pancreatin, centrifugated, the supernatant is discarded, the cells are resuspended with PBS, and the final concentration is adjusted to 1 μg/mL by adding nile red dye.

Another test has as its system rat primary hepatocyte. As to the kind of experiment: Influence on the lipid droplet content of the rat primary hepatocyte (FFA hyperlipidemia model, nile red, flow detection). Type of test: cell-based, SD rat. Conditions: administration dose 20 μM total molar concentration; 1 mmol/L FFA; 24 hours; means ± s.d., n = 3; versus model group. The protocol:
The hepatocyte is taken out from the SD rat liver by using Seglen two steps in situ circulatory perfusion method, filtered through 100-mesh sieve, centrifugated for 3 min at 500 rpm and 4° C., and the supernatant is discarded, and the hepatocyte is washed three times in the same way. The number of living cells and the cell survival rate is obtained by counting the cell, and the cells are added in the plate at 1.0*10^6 cell/mL medium. The cells are cultured for 24 hours, then the supernatant is discarded, and the cells are washed with PBS three times. […] Other groups are adjusted to a final volume of 2 mL with Williams'E medium without serum, and 24 hours after administration, washed with PBS in 37° C. three times, digested by the pancreatin, centrifugated, the supernatant is discarded, the cells are resuspended with PBS, and the final concentration is adjusted to 1 μg/mL by adding nile red dye. […] Using D-Optimal experimental design method in the mixture experimental design, calculation is carried out by using response surface analysis method and using Design expert8.05b software. Choosing D-optimal in the Mixture option, analysis is carried out by entering compatible ratio of the compatible groups and the test results in Table 2.

Setting [2] is: administration dose 20 μM, 1 mM FFA.

Regarding `CC(C)(Oc1ccc(CCNC(=O)c2ccc(Cl)cc2)cc1)C(=O)O` [bezafibrate], in test [1], the “Weight” value is 433.15 ± 24.53 g. For the same compound, in test [1] (listed under liver), the “ALT (U/L)” value is on record as 107.9 ± 14.12 U/L and the “AST (U/L)” value was 217.8 ± 33.93 U/L. Also, in test [1] (liver), the “liver TC (mg/g liver)” value is recorded as 33 ± 12.23 mg/g liver and the “liver TG (mg/g liver)” value is 186 ± 37.92 mg/g liver. Also, in test [1] (serum), the “serum HDL-C” value was found to be 1.58 ± 0.29 mmol/L, the “serum LDL-C” value was determined as 0.54 ± 0.30 mmol/L, the “serum TC” value is on record as 1.58 ± 0.17 mmol/L and the “serum TG” value came out at 0.88 ± 0.19 mmol/L. This compound also had a lipid droplet content in the test on HepG2 cell (administration dose 100 μM) of 178.84 ± 2.84.

`O=c1c(O)c(-c2ccc(O)c(O)c2)oc2cc(O)cc(O)c12` [quercetin]: in the test on rat primary hepatocyte, the “decrease of the lipid droplet content (%)” value (from here on “decrease … (%)”) worked out at 7.01 ± 1.03%. In the test with HepG2 cell (setting [2]), this compound returned a lipid droplet content of 198.25 ± 6.04.

For the compound `O=C(O)[C@H]1O[C@@H](Oc2c(-c3ccc(O)c(O)c3)oc3cc(O)cc(O)c3c2=O)[C@H](O)[C@@H](O)[C@@H]1O` [quercetin-3-O-β-D-glucuronide], the “decrease … (%)” value in the test on rat primary hepatocyte came out at 8.07 ± 0.92%. In addition, the lipid droplet content in the test with HepG2 cell (setting [2]) came to 153.38 ± 2.88.

For `O=c1c(O[C@@H]2O[C@H](CO)[C@@H](O)[C@H](O)[C@H]2O)c(-c2ccc(O)c(O)c2)oc2cc(O)cc(O)c12` [isoquercitrin], the “decrease … (%)” value in the test on rat primary hepatocyte is reported as 7.52 ± 1.63%. This compound came in with a lipid droplet content in the test with HepG2 cell (setting [2]) of 200.61 ± 8.43.

The record behind these values is patent publication US10391113B2, “Compatible composition containing chinese medicine cichorium glandulosum boiss et hout as lipid-lowering active ingredient” (Nanjing Ruiying Runze Biopharmaceutical Technology Co., Inc., priority 2014, dated 2019).
